The source of these data is patent US12421254B2, “KRAS modulators and uses thereof” (Quanta Therapeutics, Inc., priority 2023, dated 2025).

The target in assay [1] is GST-tagged KRAS-G12D (2-169) (Homo sapiens, UniProt P01116, G12D). The experiment in a line: Nucleotide exchange assay (NEA), SOS-mediated, HTRF, KRAS G12D. It is filed as biochemical. Conditions: Table 4; IC50 extracted at 30 min; 20 nM SOScat; read-out: NEA G12D IC50. In a few lines: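 SOS1cat-driven loading of fluorescent GTP-DY-647P1 (150 nM) onto GST-KRAS-G12D (2-169, 0.25 nM) read by time-resolved FRET; SOScat 20 nM, compound preincubated with KRAS 1 h at RT. Signal blanked to no-SOS reactions, normalized to DMSO; IC50 fitted from the 30-min read.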
In general terms: TR-FRET usually uses a lanthanide donor and a delayed reading to cut background.

Assay [2] concerns phospho-ERK in SW620 (KRAS-G12V) cells. The experiment in a line: pERK In Cell Western (ICW) assay (Method B), SW620. The conditions noted are these: Homo sapiens, SW-620, 3 h, Table 4. It is filed as cell-based. The method, boiled down: (§1)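 After overnight attachment, cells received nine half-log compound concentrations for 3 hours, were fixed, permeabilized and probed with phospho-ERK antibody plus DRAQ5. Normalized pERK signal versus blank control yields IC50 via variable-slope four-parameter fit.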

In assay [3] the target is GST-tagged KRAS-G12V (2-169) (Homo sapiens, UniProt P01116, G12V). Description: Nucleotide exchange assay (NEA), SOS-mediated, HTRF, KRAS G12V. It is filed as biochemical. Conditions: Table 4; IC50 extracted at 90 min; 80 nM SOS. The method, boiled down: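 Exchange onto fluorescent GTP-DY-647P1 (150 nM final) catalysed by 80 nM SOS1cat was followed by Tb-anti-GST HTRF at RT for up to 90 min, after 1 h compound pre-incubation with 0.25 nM GST-tagged KRAS-G12V (2-169), pH 7.3. DMSO = 0%, no-SOS blank = 100%; 4-parameter IC50 taken at 90 min.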

The test system of assay [4] is phospho-ERK in GP2D (KRAS-G12D) cells. The experiment in a line: pERK In Cell Western (ICW) assay (Method B), GP2D. It is filed as cell-based. The conditions noted are these: GP2d, 3 h, Table 4. The method, boiled down: as §1

pIC50: −log10 of the molar value. Bounds are passed on as bounds.

Sequence of GST-tagged KRAS-G12V (2-169) (P01116 2-169 isoform P01116-2 G12V): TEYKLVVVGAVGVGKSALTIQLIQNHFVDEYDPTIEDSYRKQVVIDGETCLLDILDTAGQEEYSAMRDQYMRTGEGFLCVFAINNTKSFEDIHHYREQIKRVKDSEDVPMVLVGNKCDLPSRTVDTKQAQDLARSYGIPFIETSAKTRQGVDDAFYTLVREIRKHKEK
Sequence of GST-tagged KRAS-G12D (2-169) (P01116 2-169 isoform P01116-2 G12D): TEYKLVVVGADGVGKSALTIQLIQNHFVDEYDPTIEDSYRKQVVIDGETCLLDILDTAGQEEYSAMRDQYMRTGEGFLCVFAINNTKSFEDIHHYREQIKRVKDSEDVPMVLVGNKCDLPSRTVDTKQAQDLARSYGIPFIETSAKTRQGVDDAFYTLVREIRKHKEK

Turning to `CC(c1cccnc1N)N(CCO)c1nc(OC[C@@]23CCCN2C[C@H](F)C3)nc(N2CC3(CCc4sc(N)c(C#N)c43)C2)n1` (single isomer, unassigned) [Compound 122A, 2-amino-1′-[4-[[(1*)-1-(2-amino-3-pyridyl)ethyl]-(2-hydroxyethyl)amino]-6-[[(2R,8S)-2-fluoro-1,2,3,5,6,7-hexahydropyrrolizin-8-yl]methoxy]-1,3,5-triazin-2-yl]spiro[5,6-dihydrocyclopenta[b]thiophene-4,3′-azetidine]-3-carbonitrile], the pIC50 in assay [1] was more than 8.00; in assay [2], 7.00 to 8.00; in assay [3], more than 8.00; in assay [4] it was more than 8.00.

In the case of `CC(CO)N(Cc1cccnc1N)c1nc(OC[C@@]23CCCN2C[C@H](F)C3)nc(N2CC3(CCc4sc(N)c(C#N)c43)C2)n1` (stereo partly drawn) [Compound 149, 2-amino-1′-[4-[(2-amino-3-pyridyl)methyl-(2-hydroxy-1-methyl-ethyl)amino]-6-[[(2R,8S)-2-fluoro-1,2,3,5,6,7-hexahydropyrrolizin-8-yl]methoxy]-1,3,5-triazin-2-yl]spiro[5,6-dihydrocyclopenta[b]thiophene-4,3′-azetidine]-3-carbonitrile], the pIC50 in assay [1] was more than 8.00; in assay [2] it was 6.00 to 7.00; in assay [3], more than 8.00; in assay [4], 4.70 to 6.00.

`CCN(c1nc(OC[C@@H]2CC[C@H]3CN(C)CCN23)nc(N2CC3(C2)SCc2sc(N)c(C#N)c23)n1)[C@H](C)c1cccnc1N` (mixture of isomers) [Compound 219, 1′-[4-[[(6SR,8aSR)-2-methyl-3,4,6,7,8,8a-hexahydro-1H-pyrrolo[1,2-a]pyrazin-6-yl]methoxy]-6-[[(1R)-1-(2-amino-3-pyridyl)ethyl]-ethyl-amino]-1,3,5-triazin-2-yl]-2-amino-spiro[6H-thieno[3,4-b]thiophene-4,3′-azetidine]-3-carbonitrile]: the pIC50 in assay [1] is more than 8.00; in assay [2], 7.00 to 8.00; in assay [3] it was more than 8.00; in assay [4], 6.00 to 7.00.

With `CC(c1cncnc1N)N(C)c1nc(OC[C@@]23CCCN2C[C@H](F)C3)nc(N2CC3(CCc4sc(N)c(C#N)c43)C2)n1` (stereo partly drawn) [Compound 108, 2-amino-1′-[4-[1-(4-aminopyrimidin-5-yl)ethyl-methyl-amino]-6-[[(2R,8S)-2-fluoro-1,2,3,5,6,7-hexahydropyrrolizin-8-yl]methoxy]-1,3,5-triazin-2-yl]spiro[5,6-dihydrocyclopenta[b]thiophene-4,3′-azetidine]-3-carbonitrile], the pIC50 in assay [1] was more than 8.00; in assay [2], 7.00 to 8.00; in assay [3] it was more than 8.00; in assay [4], 7.00 to 8.00.

`CC(c1cn(C)nc1N)N(C)c1nc(OC[C@@]23CCCN2C[C@H](F)C3)nc(N2CC3(CCc4sc(N)c(C#N)c43)C2)n1` (stereo partly drawn) [Compound 157, amino-1′-[4-[1-(3-amino-1-methyl-pyrazol-4-yl)ethyl-methyl-amino]-6-[[(2R,8S)-2-fluoro-1,2,3,5,6,7-hexahydropyrrolizin-8-yl]methoxy]-1,3,5-triazin-2-yl]spiro[5,6-dihydrocyclopenta[b]thiophene-4,3′-azetidine]-3-carbonitrile]: the pIC50 in assay [1] is 6.00 to 7.00; in assay [2] it was 4.70 to 6.00; in assay [3] it was 7.00 to 8.00; in assay [4] it was 4.70 to 6.00.

As to `C[C@@]1(O)C[C@H](F)CN(c2nc(OC[C@@]34CCCN3C[C@H](F)C4)nc(N3CC4(C3)SCc3sc(N)c(C#N)c34)n2)C1` [Compound 143, 2-amino-1′-[4-[[(2R,8S)-2-fluoro-1,2,3,5,6,7-hexahydropyrrolizin-8-yl]methoxy]-6-[(3R,5S)-5-fluoro-3-hydroxy-3-methyl-1-piperidyl]-1,3,5-triazin-2-yl]spiro[6H-thieno[3,4-b]thiophene-4,3′-azetidine]-3-carbonitrile], the pIC50 is more than 8.00 in assay [1], 7.00 to 8.00 in assay [2], more than 8.00 in assay [3] and more than 8.00 in assay [4].

On to `CCN(c1nc(OCC2CCC3C(=O)N(C)CCN23)nc(N2CC3(C2)SCc2sc(N)c(C#N)c23)n1)C(C)c1cccnc1N` (mixture of isomers) [Compound 210, 1′-[4-[[(6SR,8aSR)-2-methyl-1-oxo-3,4,6,7,8,8a-hexahydropyrrolo[1,2-a]pyrazin-6-yl]methoxy]-6-[[(IR)-1-(2-amino-3-pyridyl)ethyl]-ethyl-amino]-1,3,5-triazin-2-yl]-2-amino-spiro[6H-thieno[3,4-b]thiophene-4,3′-azetidine]-3-carbonitrile], for which the pIC50 in assay [1] was more than 8.00; in assay [2], 7.00 to 8.00; in assay [3] it was more than 8.00; in assay [4], 6.00 to 7.00.

Regarding `N#Cc1c(N)sc2c1C1(CN(c3nc(OC[C@@]45CCCN4C[C@H](F)C5)nc(N4CC(=O)Nc5ncccc5C4)n3)C1)SC2` [Compound 189, 2-amino-1′-[4-[[(2R,8S)-2-fluoro-1,2,3,5,6,7-hexahydropyrrolizin-8-yl]methoxy]-6-(2-oxo-3,5-dihydro-1H-pyrido[2,3-e][1,4]diazepin-4-yl)-1,3,5-triazin-2-yl]spiro[6H-thieno[3,4-b]thiophene-4,3′-azetidine]-3-carbonitrile], the pIC50 was 6.00 to 7.00 in assay [1], 4.70 to 6.00 in assay [2], 7.00 to 8.00 in assay [3] and 4.70 to 6.00 in assay [4].

For the molecule `CCN(c1nc(OC[C@@]23CCCN2C[C@H](F)C3)nc(N2CC3(CCc4sc(N)c(C#N)c43)C2=O)n1)[C@H](C)c1cccnc1N` (stereo partly drawn) [Compound 201, 2-amino-1′-[4-[[(1R)-1-(2-amino-3-pyridyl)ethyl]-ethyl-amino]-6-[[(2R,8S)-2-fluoro-1,2,3,5,6,7-hexahydropyrrolizin-8-yl]methoxy]-1,3,5-triazin-2-yl]-2′-oxo-spiro[5,6-dihydrocyclopenta[b]thiophene-4,3′-azetidine]-3-carbonitrile], the pIC50 was more than 8.00 in assay [1], 7.00 to 8.00 in assay [2], more than 8.00 in assay [3] and 7.00 to 8.00 in assay [4].

As to `C[C@@]1(O)CCCN(c2nc(OC[C@@]34CCCN3C[C@H](F)C4)nc(N3CC4(C3)c3c(sc(N)c3C#N)CC4(F)F)n2)C1` [Compound 114, 2-amino-5,5-difluoro-1′-[4-[[(2R,8S)-2-fluoro-1,2,3,5,6,7-hexahydropyrrolizin-8-yl]methoxy]-6-[(3R)-3-hydroxy-3-methyl-1-piperidyl]-1,3,5-triazin-2-yl]spiro[6H-cyclopenta[b]thiophene-4,3′-azetidine]-3-carbonitrile], the pIC50 was more than 8.00 in assay [1], 6.00 to 7.00 in assay [2], more than 8.00 in assay [3] and 7.00 to 8.00 in assay [4].

As to `CC(c1cccnc1O)N(C)c1nc(OC[C@@]23CCCN2C[C@H](F)C3)nc(N2CC3(CCc4sc(N)c(C#N)c43)C2)n1` (stereo partly drawn) [Compound 138, 2-amino-1′-[4-[[(2R,8S)-2-fluoro-1,2,3,5,6,7-hexahydropyrrolizin-8-yl]methoxy]-6-[1-(2-hydroxy-3-pyridyl)ethyl-methyl-amino]-1,3,5-triazin-2-yl]spiro[5,6-dihydrocyclopenta[b]thiophene-4,3′-azetidine]-3-carbonitrile], the pIC50 in assay [1] is 6.00 to 7.00; in assay [2], 4.70 to 6.00; in assay [3], 4.70 to 6.00; in assay [4], 4.70 to 6.00.

Consider `CCN(c1nc(OCC2(COC)CCCN2)nc(N2CC3(C2)SCc2sc(N)c(C#N)c23)n1)[C@H](C)c1cccnc1N` (stereo partly drawn) [Compound 202, 2-amino-1′-[4-[[(1R)-1-(2-amino-3-pyridyl)ethyl]-ethyl-amino]-6-[[2-(methoxymethyl)pyrrolidin-2-yl]methoxy]-1,3,5-triazin-2-yl]spiro[6H-thieno[3,4-b]thiophene-4,3′-azetidine]-3-carbonitrile], for which the pIC50 was more than 8.00 in assay [1], 7.00 to 8.00 in assay [2], more than 8.00 in assay [3] and 7.00 to 8.00 in assay [4].

For the molecule `CC(c1ccc(F)nc1N)N(C)c1nc(OC[C@@]23CCCN2C[C@H](F)C3)nc(N2CC3(CCc4sc(N)c(C#N)c43)C2)n1` (stereo partly drawn) [Compound 162, 2-amino-1′-[4-[1-(2-amino-6-fluoro-3-pyridyl)ethyl-methyl-amino]-6-[[(2R,8S)-2-fluoro-1,2,3,5,6,7-hexahydropyrrolizin-8-yl]methoxy]-1,3,5-triazin-2-yl]spiro[5,6-dihydrocyclopenta[b]thiophene-4,3′-azetidine]-3-carbonitrile], the pIC50 is 7.00 to 8.00 in assay [1], 7.00 to 8.00 in assay [2], more than 8.00 in assay [3] and 6.00 to 7.00 in assay [4].

As for `C[C@@]1(CO)C[C@@H](O)CN1c1nc(OC[C@@]23CCCN2C[C@H](F)C3)nc(N2CC3(CCc4sc(N)c(C#N)c43)C2)n1` [Compound 59, 2-amino-1′-[4-[[(2R,8S)-2-fluoro-1,2,3,5,6,7-hexahydropyrrolizin-8-yl]methoxy]-6-[(2S,4R)-4-hydroxy-2-(hydroxymethyl)-2-methyl-pyrrolidin-1-yl]-1,3,5-triazin-2-yl]spiro[5,6-dihydrocyclopenta[b]thiophene-4,3′-azetidine]-3-carbonitrile], the pIC50 in assay [1] was 6.00 to 7.00; in assay [2] it was not above 4.70; in assay [3], 7.00 to 8.00; in assay [4], not above 4.70.

For orientation: pIC50 means −log10 of the IC50, conventionally taken in molar units.
